Reference: US5525626A (priority 1989, dated 1996)

Key:
[1] = tested on: brain-tumor cells (glioblastoma cells); assay: growth inhibition of brain-tumor cells; assay type: cell-based; conditions: Tables 1 to 3
PC-3 cells = assay: cell growth, combination with TNF; assay type: cell-based; conditions: 7-OH-1,2-BP 500 μM/ml; TNF 1 nM/ml; combination 500 μM/1 nM; 4 days; 3×10^4 cells/well; control 18.58 + 1.05
From the text: (§2) Various cell lines (DU-145, PC-3 and LNCaP) from prostate carcinomas were used.
(§3) Initial cell count: 3×10^4 cells/well; exposure period: DU-145, PC-3: 4 days; LNCaP: 6 days

[2] = tested on: PDGF receptors and EGF system; assay: expression of receptors / EGF system; assay type: cell-based; conditions: Seliger et al., unpublished results
From the text: In connection with the neoplastic transformation and increased proliferation rate of glioblastoma cells, two autocrinic loops, the EGF and the PDGF system, are discussed.

CAKI-1 cells = assay: 3H-thymidine assay; assay type: cell-based; conditions: Homo sapiens, CAKI-1
Method in brief: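 Antiproliferative activity against CAKI-1 cells was measured by 3H-thymidine incorporation. After washing in PBS, precipitated radioactivity was solubilized in 0.3M NaOH and counted. Incorporation in substance-treated cells was compared with untreated controls to assess growth inhibition, and the substance concentration giving 50% inhibition of 3H-thymidine insertion was found.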

[3] = tested on: MCF-7 breast cancer cells; assay: 3H-thymidine assay; assay type: cell-based; conditions: Homo sapiens, MCF7
Method in brief: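 MCF-7 cells were plated at 10^4 cells per well in 24-well plates and, once roughly half-confluent after approximately 48 hours, exposed to compound-containing medium. Growth inhibition was assessed from 3H-thymidine insertion relative to untreated controls: cultures were washed twice in ice-cold PBS, acid-insoluble label was precipitated with 5% trichloroacetic acid (one hour, 4° C), dissolved in 0.3M NaOH and counted. The concentration giving 50% inhibition of insertion was determined.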

bladder tumor cells = assay: photometric cell count / mitochondrial activity; assay type: cell-based; conditions: 20 hours, increasing concentrations
Experimental: (§1) Subsequently the cell count was photometrically determined according to Alley M. C. et al., Cancer Research 48, 589-601 (1988). In the process, a colorant is added to the cells that have been mixed with medium, the colorant being so converted by cells with mitochondrial activity that a photometric determination of the cell count is possible.

[4] = tested on: erythroleukemic cells (K 562); assay: photometric cell count / mitochondrial activity; assay type: cell-based; conditions: 20 hours, increasing concentrations
Experimental: as §1

A 431 cells = assay: growth curve, epidermoidal carcinoma cells; assay type: cell-based, human; conditions: for Cell count: 10 μM/ml
Experimental: The neuroblastoma cell line and the three glioblastoma cell lines were cultivated in Ham's F10 medium enriched with 10% fetal calf serum (FCS) and the usual quantity of penicillin, streptomycin (Pen/Strep) and glutamine. The epidermoidal cell line was cultivated in modified Eagle's Medium (MEM), likewise enriched with 10% (FCS) and the usual quantity of glutamine and Pen/Strep.
In each case 5×10^4 cells were plated out in T25 bottles, the untreated cells being incubated in analogous conditions as control. The cell count was microscopically determined after 3, 5, 7, 10 and 12 days.

CAKI-2 cells = assay: 3H-thymidine assay; assay type: cell-based; conditions: Homo sapiens, CAKI-2
Experimental: The cell lines were cultivated as indicated in Example 1.
The antiproliferative effect of the 1,2-benzopyrone derivatives according to the invention on the tumor cell lines in each case was shown with the help of the ^3 H-thymidine insertion and with reference to growth curves.
In a 24-well-plate, in each case 10^4 cells of the line to be investigated were inoculated per well. Approximately 48 hours later the cells were half-confluent; the medium was then changed and replaced by a medium containing the active substance in question (cf Table 3). […] Subsequently the cultures were washed twice with ice-cold PBS and the high-molecular-weight ^3 H-radioactivity was precipitated with 5% trichloroacetic acid for one hour at 4° C. After the washing of the cells in PBS the ^3 H-radioactivity was solubilized with 0.3M NaOH and measured in the counter. The growth-inhibition was determined by comparing the thymidine insertion of the cells treated with active substance with untreated cells.
The active substance concentration in each case was so chosen that ^3 H-thymidine insertion was 50% inhibited. The active substance concentrations used under this aspect for the active substances and cell lines in each case are given in table 4 below in μM/ml, […]

LNCap cells = assay: cell growth, combination with TNF; assay type: cell-based, human; conditions: 7-OH-1,2-BP 500 μM/ml; TNF 1 nM/ml; combination 500 μM/1 nM; 6 days; 3×10^4 cells/well; control 61.40 + 3.70
From the text: as §2, §3

g-CCM cells = assay: growth inhibition of anaplastic astrocytoma cells (Table 1); assay type: cell-based, human; conditions: 200 μmol/ml, after 10 days
HCV cells = assay: 3H-thymidine assay; assay type: cell-based
g-UVW cells = assay: antineoplastic effect on human anaplastic astrocytoma cells (Table 1, Example 3); assay type: cell-based
From the text: The process as per Example 2 was repeated with the exception that cells of the 6-UVW line from human anaplastic astrocytoma were used and enriched in DMEM:HAM's F 12 medium (1:1) with L-glutamine and 10% FCS.

[5] = 1 μM/ml, read-out: 3H-thymidine tracer (%) of control
[6] = 2 μM/ml, read-out: 3H-thymidine tracer (%) of control
[7] = 4 μM/ml, read-out: 3H-thymidine tracer (%) of control
[8] = 8 μM/ml, read-out: 3H-thymidine tracer (%) of control
[9] = 16 μM/ml, read-out: 3H-thymidine tracer (%) of control
[10] = 25 μM/ml, read-out: 3H-thymidine tracer (%) of control
[11] = 50 μM/ml, read-out: 3H-thymidine tracer (%) of control
[12] = 100 μM/ml, read-out: 3H-thymidine tracer (%) of control
[13] = 150 μM/ml, read-out: 3H-thymidine tracer (%) of control
[14] = 500 μM/ml, read-out: 3H-thymidine tracer (%) of control
[15] = Table 4, *: maximum usable dosage, no 50% inhibition, read-out: active substance concentration at which 3H-thymidine insertion was 50% inhibited
[16] = 250 μM/ml, read-out: 3H-thymidine tracer (%) of control

## O=c1ccc2ccc(O)cc2o1 [7-OH-1,2-BP, 7-hydroxy-1,2-benzopyrone]
[1]
  growth-inhibiting effect on brain-tumor cells: strong growth-inhibiting effect on brain-tumor cells
PC-3 cells
  Cell growth: 11.51 + 0.63
[2]
  expression of PDGF receptors and of the EGF system: not influenced
CAKI-1 cells; [5]
  activity at 1 µM: 100%
CAKI-1 cells; [6]
  activity at 2 µM: 98%
CAKI-1 cells; [7]
  activity at 4 µM: 90%
CAKI-1 cells; [8]
  activity at 8 µM: 81%
CAKI-1 cells; [9]
  activity at 16 µM: 76%
CAKI-1 cells; [10]
  activity at 25 µM: 62%
CAKI-1 cells; [11]
  activity at 50 µM: 57%
CAKI-1 cells; [12]
  activity at 100 µM: 49%
CAKI-1 cells; [13]
  activity at 150 µM: 44%
CAKI-1 cells; [14]
  activity at 500 µM: 40%
CAKI-1 cells; [15]
  IC50: 100 µM
[3]; [5]
  activity at 1 µM: 98%
[3]; [6]
  activity at 2 µM: 94%
[3]; [7]
  activity at 4 µM: 88%
[3]; [8]
  activity at 8 µM: 82%
[3]; [9]
  activity at 16 µM: 75%
[3]; [10]
  activity at 25 µM: 69%
[3]; [11]
  activity at 50 µM: 62%
[3]; [12]
  activity at 100 µM: 51%
[3]; [16]
  activity at 250 µM: 43%
[3]; [14]
  activity at 500 µM: 29%
[3]; [15]
  IC50: 100 µM
Bladder tumor cells
  inhibition of mitochondrial activity: a dosage-related inhibition of the mitochondrial activity occurs
[4]
  inhibition of mitochondrial activity: a dosage-related inhibition of the mitochondrial activity occurs
A 431 cells; after 3 days, control 6
  Cell count: 4 × 10^4
A 431 cells; after 5 days, control 24
  Cell count: 10 × 10^4
A 431 cells; after 7 days, control 45
  Cell count: 3 × 10^4
A 431 cells; after 10 days, control 56
  Cell count: 12 × 10^4
A 431 cells; after 12 days, control 87
  Cell count: 21 × 10^4
A 431 cells; Homo sapiens, A-431, 288 h, 10 μM/ml (Table 2), read-out: % growth inhibition compared with control after 12 days
  inhibition at 10 µM: 76%
CAKI-2 cells; [5]
  activity at 1 µM: 95%
CAKI-2 cells; [6]
  activity at 2 µM: 92%
CAKI-2 cells; [7]
  activity at 4 µM: 88%
CAKI-2 cells; [8]
  activity at 8 µM: 77%
CAKI-2 cells; [9]
  activity at 16 µM: 71%
CAKI-2 cells; [10]
  activity at 25 µM: 65%
CAKI-2 cells; [11]
  activity at 50 µM: 54%
CAKI-2 cells; [12]
  activity at 100 µM: 46%
CAKI-2 cells; [13]
  activity at 150 µM: 39%
CAKI-2 cells; [14]
  activity at 500 µM: 35%
CAKI-2 cells; [15]
  IC50: 75 µM
LNCap cells
  Cell growth: 11.0 + 1.10
g-CCM cells
  % Growth inhibition compared with control: 44%
HCV cells; [5]
  activity at 1 µM: 98%
HCV cells; [6]
  activity at 2 µM: 95%
HCV cells; [7]
  activity at 4 µM: 88%
HCV cells; [8]
  activity at 8 µM: 82%
HCV cells; [9]
  activity at 16 µM: 74%
HCV cells; [10]
  activity at 25 µM: 69%
HCV cells; [11]
  activity at 50 µM: 63%
HCV cells; [16]
  activity at 250 µM: 57%
HCV cells; [14]
  activity at 500 µM: 50%
HCV cells; [15]
  IC50: 500 µM
g-UVW cells; 200 μmol/ml, after 10 days
  % Growth inhibition compared with control: 40%
g-UVW cells; Example 3, FIG. 2
  cytostatic effect on human anaplastic astrocytoma cells: has a cytostatic effect on human anaplastic astrocytoma cells
